In patent EP0432983A2 (priority 1989, dated 1991):
Converted amounts (≈) assume the structure as drawn.

Key:
[1] = tested on: CV-1 (monkey kidney fibroblast); test: Cytotoxicity assay, CV-1; format: cell-based
Description: (§1) With compounds AH-3, AH-4 and AH-5, four general anti-tumour assays and two cytotoxicity assays were performed. Current screening protocols were employed using test substance diluted as above and at varying concentrations. Tests were performed against the tumour cells P-388 (mouse DBA/2 lymphoid neoplasm), A-549 (human lung carcinoma), HT-29 (human colon carcinoma) and MCF-7 (human breast carcinoma) and for the cytotoxicity assays against CV-1 (monkey kidney fibroblast) and BHK (Hamster kidney fibroblast).
(§2) Scoring is performed as follows: (-) no activity - the number of cells is equal to the control of growth, 0-40% cell inhibition (+) low activity - numbers of cells are reduced by approx 50-60% (++) good activity - numbers of cells are reduced by approx 70-90% (+++) very good activity - there is 100% cell inhibition [(+) is the approximate IC₅₀]

[2] = tested on: P-388 (mouse DBA/2 lymphoid neoplasm); test: General anti-tumour assay, P-388; format: cell-based
Description: as §1, §2

[3] = tested on: MCF-7 (human breast carcinoma); test: General anti-tumour assay, MCF-7; format: cell-based
Description: as §1, §2

[4] = tested on: HT-29 (human colon carcinoma); test: General anti-tumour assay, HT-29; format: cell-based
Description: as §1, §2

[5] = tested on: BHK (Hamster kidney fibroblast); test: Cytotoxicity assay, BHK; format: cell-based
Description: as §1, §2

[6] = tested on: HSV-1 (herpes simplex virus, type 1); test: General anti-viral assay, HSV-1 in CV-1 cells (plaque reduction); format: cell-based; conditions: Human alphaherpesvirus 1; CV-1/ HSV-1; read-out: IC50 µg/ml approx
[7] = tested on: VSV (Vesicular Stomatitis Virus); test: microbe, parasite or virus in culture; format: cell-based; conditions: BHK, read-out: IC50 µg/ml approx
[8] = tested on: BHK cells
[9] = tested on: A-549 (human lung carcinoma); test: General anti-tumour assay, A-549; format: cell-based
Description: as §1, §2

## CC(C)=CCCC(C)C1CCC(C)c2c1cc(C)c1c2OCO1 (stereo not drawn) [AH-4, Helioporin D]
[1]; CV-1, TEST CONC (µg) 0.2
  activity (cell inhibition): - ((-) no activity - the number of cells is equal to the control of growth, 0-40% cell inhibition)
[1]; CV-1, TEST CONC (µg) 0.5
  activity (cell inhibition): - ((-) no activity - the number of cells is equal to the control of growth, 0-40% cell inhibition)
[1]; CV-1, TEST CONC (µg) 1
  activity (cell inhibition): - ((-) no activity - the number of cells is equal to the control of growth, 0-40% cell inhibition)
[1]; CV-1, TEST CONC (µg) 2
  activity (cell inhibition): - ((-) no activity - the number of cells is equal to the control of growth, 0-40% cell inhibition)
[1]; CV-1, TEST CONC (µg) 5
  activity (cell inhibition): - ((-) no activity - the number of cells is equal to the control of growth, 0-40% cell inhibition)
[1]; CV-1, TEST CONC (µg) 10
  activity (cell inhibition): + ((+) low activity - numbers of cells are reduced by approx 50-60%)
[1]; CV-1, TEST CONC (µg) 20
  activity (cell inhibition): ++ ((++) good activity - numbers of cells are reduced by approx 70-90%)
[1]; Primates, CV-1, read-out: IC50 µg/ml approx
  IC50: ~10 µg/mL (≈ 31.8 µM)
[2]; Mus musculus, P388, P-388, read-out: IC50 µg/ml approx
  IC50: ~2 µg/mL (≈ 6.36 µM)
[2]; P-388, TEST CONC (µg) 0.2
  activity (cell inhibition): - ((-) no activity - the number of cells is equal to the control of growth, 0-40% cell inhibition)
[2]; P-388, TEST CONC (µg) 0.5
  activity (cell inhibition): - ((-) no activity - the number of cells is equal to the control of growth, 0-40% cell inhibition)
[2]; P-388, TEST CONC (µg) 1
  activity (cell inhibition): - ((-) no activity - the number of cells is equal to the control of growth, 0-40% cell inhibition)
[2]; P-388, TEST CONC (µg) 2
  activity (cell inhibition): + ((+) low activity - numbers of cells are reduced by approx 50-60%)
[2]; P-388, TEST CONC (µg) 5
  activity (cell inhibition): ++ ((++) good activity - numbers of cells are reduced by approx 70-90%)
[2]; P-388, TEST CONC (µg) 10
  activity (cell inhibition): ++ ((++) good activity - numbers of cells are reduced by approx 70-90%)
[2]; P-388, TEST CONC (µg) 20
  activity (cell inhibition): ++ ((++) good activity - numbers of cells are reduced by approx 70-90%)
[3]; Homo sapiens, MCF7, MCF-7, read-out: IC50 µg/ml approx
  IC50: ~10 µg/mL (≈ 31.8 µM)
[3]; MCF-7, TEST CONC (µg) 0.2
  activity (cell inhibition): - ((-) no activity - the number of cells is equal to the control of growth, 0-40% cell inhibition)
[3]; MCF-7, TEST CONC (µg) 0.5
  activity (cell inhibition): - ((-) no activity - the number of cells is equal to the control of growth, 0-40% cell inhibition)
[3]; MCF-7, TEST CONC (µg) 1
  activity (cell inhibition): - ((-) no activity - the number of cells is equal to the control of growth, 0-40% cell inhibition)
[3]; MCF-7, TEST CONC (µg) 2
  activity (cell inhibition): - ((-) no activity - the number of cells is equal to the control of growth, 0-40% cell inhibition)
[3]; MCF-7, TEST CONC (µg) 5
  activity (cell inhibition): - ((-) no activity - the number of cells is equal to the control of growth, 0-40% cell inhibition)
[3]; MCF-7, TEST CONC (µg) 10
  activity (cell inhibition): + ((+) low activity - numbers of cells are reduced by approx 50-60%)
[3]; MCF-7, TEST CONC (µg) 20
  activity (cell inhibition): ++ ((++) good activity - numbers of cells are reduced by approx 70-90%)
[4]; HT-29, TEST CONC (µg) 0.2
  activity (cell inhibition): - ((-) no activity - the number of cells is equal to the control of growth, 0-40% cell inhibition)
[4]; HT-29, TEST CONC (µg) 0.5
  activity (cell inhibition): - ((-) no activity - the number of cells is equal to the control of growth, 0-40% cell inhibition)
[4]; HT-29, TEST CONC (µg) 1
  activity (cell inhibition): - ((-) no activity - the number of cells is equal to the control of growth, 0-40% cell inhibition)
[4]; HT-29, TEST CONC (µg) 2
  activity (cell inhibition): - ((-) no activity - the number of cells is equal to the control of growth, 0-40% cell inhibition)
[4]; HT-29, TEST CONC (µg) 5
  activity (cell inhibition): + ((+) low activity - numbers of cells are reduced by approx 50-60%)
[4]; HT-29, TEST CONC (µg) 10
  activity (cell inhibition): +++ ((+++) very good activity - there is 100% cell inhibition)
[4]; HT-29, TEST CONC (µg) 20
  activity (cell inhibition): +++ ((+++) very good activity - there is 100% cell inhibition)
[4]; Homo sapiens, HT-29, read-out: IC50 µg/ml approx
  IC50: ~5 µg/mL (≈ 15.9 µM)
[5]; Mesocricetus auratus, read-out: IC50 µg/ml approx
  IC50: 2 to 5 µg/mL (≈ 6.36 to 15.9 µM)
[5]; TEST CONC (µg) 0.2
  activity (cell inhibition): - ((-) no activity - the number of cells is equal to the control of growth, 0-40% cell inhibition)
[5]; TEST CONC (µg) 0.5
  activity (cell inhibition): - ((-) no activity - the number of cells is equal to the control of growth, 0-40% cell inhibition)
[5]; TEST CONC (µg) 1
  activity (cell inhibition): - ((-) no activity - the number of cells is equal to the control of growth, 0-40% cell inhibition)
[5]; TEST CONC (µg) 2
  activity (cell inhibition): - ((-) no activity - the number of cells is equal to the control of growth, 0-40% cell inhibition)
[5]; TEST CONC (µg) 5
  activity (cell inhibition): ++ ((++) good activity - numbers of cells are reduced by approx 70-90%)
[5]; TEST CONC (µg) 10
  activity (cell inhibition): +++ ((+++) very good activity - there is 100% cell inhibition)
[5]; TEST CONC (µg) 20
  activity (cell inhibition): +++ ((+++) very good activity - there is 100% cell inhibition)
[6]
  IC50: > 40 µg/mL
[7]
  IC50: > 40 µg/mL
[8]
  cytotoxicity (inhibition zone on the cell sheet): 0-
[9]; A-549, TEST CONC (µg) 0.2
  activity (cell inhibition): - ((-) no activity - the number of cells is equal to the control of growth, 0-40% cell inhibition)
[9]; A-549, TEST CONC (µg) 0.5
  activity (cell inhibition): - ((-) no activity - the number of cells is equal to the control of growth, 0-40% cell inhibition)
[9]; A-549, TEST CONC (µg) 1
  activity (cell inhibition): - ((-) no activity - the number of cells is equal to the control of growth, 0-40% cell inhibition)
[9]; A-549, TEST CONC (µg) 2
  activity (cell inhibition): - ((-) no activity - the number of cells is equal to the control of growth, 0-40% cell inhibition)
[9]; A-549, TEST CONC (µg) 5
  activity (cell inhibition): - ((-) no activity - the number of cells is equal to the control of growth, 0-40% cell inhibition)
[9]; A-549, TEST CONC (µg) 10
  activity (cell inhibition): ++ ((++) good activity - numbers of cells are reduced by approx 70-90%)
[9]; A-549, TEST CONC (µg) 20
  activity (cell inhibition): ++ ((++) good activity - numbers of cells are reduced by approx 70-90%)
[9]; Homo sapiens, A549, A-549, read-out: IC50 µg/ml approx
  IC50: 5 to 10 µg/mL (≈ 15.9 to 31.8 µM)
